Reference: patent US11629171B2, “Beta-hairpin peptidomimetics” (POLYPHOR AG, priority 2017, dated 2023)
Converted amounts (≈) assume the structure as drawn. Where a SMILES comes first, the peptide text is derived from it. Bridges are numbered along the chain shown (N, C = ends). Roman numbers before positions name the chains, in order. [ ]: non-standard residue; d: D form. dDab = NCC[C@@H](N)C(=O)O; Orn = NCCC[C@H](N)C(=O)O; Dab = NCC[C@H](N)C(=O)O; Abu = CC[C@H](N)C(=O)O; Dap = NC[C@H](N)C(=O)O

Assays:
[1] = system: male ICR mice; experiment: Tolerability in a mouse model (Maximum Tolerated Dose assay); type: in vivo; conditions: 2 × 40 mg/kg s.c. at a 12-hr interval, groups of 3
Outline: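 Peptides in 0.9% NaCl (pH 6.5-7.6) given s.c. at 30 or 40 mg/kg, twice 12 h apart, to groups of 3 male ICR mice (23±3 g). Acute toxic signs (mortality, convulsions, tremors, sedation) and autonomic effects (diarrhea, salivation, piloerection) observed for 30 min after each dose.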

[2] = system: Escherichia coli 926415; type: cell-based; conditions: 926415
Outline: (§1)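 CLSI broth microdilution in cation-adjusted Mueller-Hinton II broth with 0.002% polysorbate 80 (final), inoculum appr. 10^6 CFU/mL, peptides in serial two-fold dilutions. MIC (μg/mL) is the lowest concentration without visible growth after 18-20 h at 35° C.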

[3] = system: Klebsiella pneumoniae SSI #3010; type: cell-based; conditions: SSI #3010
Outline: as §1

[4] = system: Acinetobacter baumannii 872842; type: cell-based; conditions: 872842
Outline: as §1

[5] = system: Pseudomonas aeruginosa ATCC 27853; type: cell-based; conditions: ATCC 27853
Outline: as §1

[6] = system: Klebsiella pneumoniae 968733; type: cell-based; conditions: 968733
Outline: as §1

[7] = system: Acinetobacter baumannii DSM 30008; type: cell-based; conditions: DSM 30008
Outline: as §1

[8] = system: Escherichia coli ATCC 25922; type: cell-based; conditions: ATCC 25922
Outline: as §1

[9] = system: Enterobacter cloacae 848840; type: cell-based; conditions: 848840
Outline: as §1

[10] = system: human red blood cells (hRBC); experiment: Hemolysis; type: cell-based; conditions: red cells of human, 1 h, 200
Outline: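 Washed fresh hRBC (20% v/v) were incubated with peptides at 200 μg/mL for 1 h at 37° C with shaking at 300 rpm. Supernatant OD540 was read after centrifugation and dilution, blank-corrected, and expressed as percent of the 2% Triton X-100 (100% lysis) control; PBS with 10% water gave 0%.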

SMILES | Mortality and dose [1] | MIC [2] [µg/mL] | Klebsiella pneumoniae SSI #3010 MIC [3] [µg/mL] | MIC [4] [µg/mL] | Pseudomonas aeruginosa ATCC 27853 MIC [5] [µg/mL] | MIC [6] [µg/mL] | Acinetobacter baumannii DSM 30008 MIC [7] [µg/mL] | Escherichia coli ATCC 25922 MIC [8] [µg/mL] | MIC [9] [µg/mL] | Hemolysis at 200 μg/mL [10] [%]
CC(=O)N[C@H](C(=O)N[C@H]1CSSC[C@@H](C(=O)N[C@@H](CO)C(N)=O)NC(=O)[C@H](C(C)C)NC(=O)[C@H](CO)NC(=O)[C@H](Cc2c[nH]c3ccccc23)NC(=O)CNC(=O)[C@@H](CCN)NC(=O)[C@H](CCC(=O)N[C@@H](CCN)C(=O)N[C@H](C(=O)N[C@@H](CN)C(=O)N[C@H]2CCNC(=O)[C@H]([C@@H](C)O)NC(=O)[C@H](CCN)NC(=O)[C@H](CCN)NC(=O)[C@H](CC(C)C)NC(=O)[C@@H](CC(C)C)NC(=O)[C@H](CCN)NC2=O)[C@@H](C)O)NC(=O)[C@H](CCN)NC(=O)[C@H](Cc2ccc(O)cc2)NC1=O)C(C)C [Ex. 350] (I: Ac-VCY[Dab]E[dDab]GWSVCS-NH2 / II: [Dab]T[Dap][Dab][Dab][dL]L[Dab][Dab]T; disulfide I:2-I:11; amide I:5-II:N; lactam II:4-II:C) | 0/3 died at 2 × 40 mg/kg | 0.125 (≈ 0.0528 µM) | 0.125 | 0.0625 (≈ 0.0264 µM) | 0.125 | 0.125 (≈ 0.0528 µM) | 0.03125 | 0.03125 | 0.125 (≈ 0.0528 µM) | <1
CC(=O)N[C@H](C(=O)N[C@H]1CCNC(=O)C[C@@H](C(=O)N[C@@H](CO)C(N)=O)NC(=O)[C@H](C(C)C)NC(=O)[C@H](CO)NC(=O)[C@H](Cc2c[nH]c3ccccc23)NC(=O)CNC(=O)[C@@H](CCN)NC(=O)[C@H](CCC(=O)N[C@@H](CCN)C(=O)N[C@H](C(=O)N[C@@H](CN)C(=O)N[C@H]2CCNC(=O)[C@H]([C@@H](C)O)NC(=O)[C@H](CCN)NC(=O)[C@H](CCN)NC(=O)[C@H](CC(C)C)NC(=O)[C@@H](CC(C)C)NC(=O)[C@H](CCN)NC2=O)[C@@H](C)O)NC(=O)[C@H](CCN)NC(=O)[C@H](Cc2ccc(O)cc2)NC1=O)C(C)C [Ex. 351] (I: Ac-V[Dab]Y[Dab]E[dDab]GWSVDS-NH2 / II: [Dab]T[Dap][Dab][Dab][dL]L[Dab][Dab]T; lactam I:2-I:11, II:4-II:C; amide I:5-II:N) | 0/3 died at 2 × 40 mg/kg | 0.5 (≈ 0.212 µM) | 0.0625 | 0.25 (≈ 0.106 µM) | 0.125 | 1 (≈ 0.423 µM) | 0.0625 | 0.0625 | 0.25 (≈ 0.106 µM) | <1
CC(=O)N[C@H](C(=O)N[C@H]1CSSC[C@@H](C(=O)N[C@@H](CO)C(N)=O)NC(=O)[C@H](C(C)C)NC(=O)[C@H](CO)NC(=O)[C@H](Cc2c[nH]c3ccccc23)NC(=O)[C@H](CCC(=O)N[C@@H](CCN)C(=O)N[C@H](C(=O)N[C@@H](CN)C(=O)N[C@H]2CCNC(=O)[C@H]([C@@H](C)O)NC(=O)[C@H](CCN)NC(=O)[C@H](CCN)NC(=O)[C@H](CC(C)C)NC(=O)[C@@H](CC(C)C)NC(=O)[C@H](CCN)NC2=O)[C@@H](C)O)NC(=O)[C@@H](CCN)NC(=O)[C@H](Cc2c[nH]cn2)NC(=O)[C@H](CO)NC(=O)[C@H](Cc2ccc(O)cc2)NC1=O)C(C)C [Ex. 358] (I: Ac-VCYSH[dDab]EWSVCS-NH2 / II: [Dab]T[Dap][Dab][Dab][dL]L[Dab][Dab]T; disulfide I:2-I:11; amide I:7-II:N; lactam II:4-II:C) | 0/3 died at 2 × 40 mg/kg | 0.25 (≈ 0.103 µM) | 0.125 | 0.0625 (≈ 0.0257 µM) | 0.125 | 0.25 (≈ 0.103 µM) | 0.03125 | 0.03125 | 0.125 (≈ 0.0513 µM) | 1
CC(=O)N[C@H](C(=O)N[C@H]1CSSC[C@@H](C(=O)N[C@@H](CO)C(N)=O)NC(=O)[C@H](C(C)C)NC(=O)[C@H](CO)NC(=O)[C@H](Cc2c[nH]c3ccccc23)NC(=O)[C@H](CCC(=O)N[C@@H](CCN)C(=O)N[C@H](C(=O)N[C@@H](CN)C(=O)N[C@H]2CCNC(=O)[C@H]([C@@H](C)O)NC(=O)[C@H](CCN)NC(=O)[C@H](CCN)NC(=O)[C@H](CC(C)C)NC(=O)[C@@H](CC(C)C)NC(=O)[C@H](CCN)NC2=O)[C@@H](C)O)NC(=O)[C@@H](CCN)NC(=O)[C@H](CCCN)NC(=O)[C@H](CCN)NC(=O)[C@H](Cc2ccc(O)cc2)NC1=O)C(C)C [Ex. 359] (I: Ac-VCY[Dab][Orn][dDab]EWSVCS-NH2 / II: [Dab]T[Dap][Dab][Dab][dL]L[Dab][Dab]T; disulfide I:2-I:11; amide I:7-II:N; lactam II:4-II:C) | 0/3 died at 2 × 40 mg/kg | 0.25 (≈ 0.103 µM) | 0.125 | 0.125 (≈ 0.0515 µM) | 0.125 | 0.5 (≈ 0.206 µM) | 0.0625 | 0.0625 | 0.125 (≈ 0.0515 µM) | 1
CC(=O)N[C@H](C(=O)N[C@H]1CSSC[C@@H](C(=O)N[C@@H](CO)C(N)=O)NC(=O)[C@H](C(C)C)NC(=O)[C@H](CO)NC(=O)[C@H](Cc2c[nH]c3ccccc23)NC(=O)[C@H](CCC(=O)N[C@@H](CCN)C(=O)N[C@H](C(=O)N[C@@H](CN)C(=O)N[C@H]2CCNC(=O)[C@H]([C@@H](C)O)NC(=O)[C@H](CCN)NC(=O)[C@H](CCN)NC(=O)[C@H](CC(C)C)NC(=O)[C@@H](CC(C)C)NC(=O)[C@H](CCN)NC2=O)[C@@H](C)O)NC(=O)[C@@H](CCN)NC(=O)[C@H](C)NC(=O)[C@H](CCN)NC(=O)[C@H](Cc2ccc(O)cc2)NC1=O)C(C)C [Ex. 361] (I: Ac-VCY[Dab]A[dDab]EWSVCS-NH2 / II: [Dab]T[Dap][Dab][Dab][dL]L[Dab][Dab]T; disulfide I:2-I:11; amide I:7-II:N; lactam II:4-II:C) | 0/3 died at 2 × 40 mg/kg | 0.125 (≈ 0.0525 µM) | 0.0625 | 0.0625 (≈ 0.0262 µM) | 0.125 | 0.125 (≈ 0.0525 µM) | 0.0625 | 0.0625 | 0.0625 (≈ 0.0262 µM) | <1
CC[C@@H]1NC(=O)[C@H](CCN)NC(=O)[C@H](Cc2ccc(O)cc2)NC(=O)[C@@H](NC(=O)[C@@H](NC(C)=O)C(C)C)CSSC[C@@H](C(=O)N[C@@H](CO)C(N)=O)NC(=O)[C@H](C(C)C)NC(=O)[C@H](CO)NC(=O)[C@H](Cc2c[nH]c3ccccc23)NC(=O)[C@H](CCC(=O)N[C@@H](CCN)C(=O)N[C@H](C(=O)N[C@@H](CN)C(=O)N[C@H]2CCNC(=O)[C@H]([C@@H](C)O)NC(=O)[C@H](CCN)NC(=O)[C@H](CCN)NC(=O)[C@H](CC(C)C)NC(=O)[C@@H](CC(C)C)NC(=O)[C@H](CCN)NC2=O)[C@@H](C)O)NC(=O)[C@@H](CCN)NC1=O [Ex. 363] (I: Ac-VCY[Dab][Abu][dDab]EWSVCS-NH2 / II: [Dab]T[Dap][Dab][Dab][dL]L[Dab][Dab]T; disulfide I:2-I:11; amide I:7-II:N; lactam II:4-II:C) | 0/3 died at 2 × 40 mg/kg | 0.125 (≈ 0.0522 µM) | 0.0625 | 0.0625 (≈ 0.0261 µM) | 0.125 | 0.125 (≈ 0.0522 µM) | 0.0625 | 0.0625 | 0.0625 (≈ 0.0261 µM) | 2
CC(=O)N[C@H](C(=O)N[C@H]1CSSC[C@@H](C(=O)N[C@@H](CO)C(N)=O)NC(=O)[C@H](C(C)C)NC(=O)[C@H](CO)NC(=O)[C@H](Cc2c[nH]c3ccccc23)NC(=O)[C@H](CCC(=O)N[C@@H](CCN)C(=O)N[C@H](C(=O)N[C@@H](CN)C(=O)N[C@H]2CCNC(=O)[C@H]([C@@H](C)O)NC(=O)[C@H](CCN)NC(=O)[C@H](CCN)NC(=O)[C@H](CC(C)C)NC(=O)[C@@H](CC(C)C)NC(=O)[C@H](CCN)NC2=O)[C@@H](C)O)NC(=O)[C@@H](CCN)NC(=O)[C@H]([C@@H](C)O)NC(=O)[C@H](CCN)NC(=O)[C@H](Cc2ccc(O)cc2)NC1=O)C(C)C [Ex. 364] (I: Ac-VCY[Dab]T[dDab]EWSVCS-NH2 / II: [Dab]T[Dap][Dab][Dab][dL]L[Dab][Dab]T; disulfide I:2-I:11; amide I:7-II:N; lactam II:4-II:C) | 0/3 died at 2 × 40 mg/kg | 0.25 (≈ 0.104 µM) | 0.0625 | 0.125 (≈ 0.0518 µM) | 0.125 | 0.125 (≈ 0.0518 µM) | 0.0625 | 0.0625 | 0.125 (≈ 0.0518 µM) | <1
